Measurements: patent publication US8143290B2, “Chemical compounds 572” (AstraZeneca AB, priority 2006, dated 2012)

Target: T1, recombinant human GR (Homo sapiens, UniProt P04150)
T1 construct: purchased Panvera/Invitrogen P2812 (kit P2893)
T1 sequence (P04150 1-777): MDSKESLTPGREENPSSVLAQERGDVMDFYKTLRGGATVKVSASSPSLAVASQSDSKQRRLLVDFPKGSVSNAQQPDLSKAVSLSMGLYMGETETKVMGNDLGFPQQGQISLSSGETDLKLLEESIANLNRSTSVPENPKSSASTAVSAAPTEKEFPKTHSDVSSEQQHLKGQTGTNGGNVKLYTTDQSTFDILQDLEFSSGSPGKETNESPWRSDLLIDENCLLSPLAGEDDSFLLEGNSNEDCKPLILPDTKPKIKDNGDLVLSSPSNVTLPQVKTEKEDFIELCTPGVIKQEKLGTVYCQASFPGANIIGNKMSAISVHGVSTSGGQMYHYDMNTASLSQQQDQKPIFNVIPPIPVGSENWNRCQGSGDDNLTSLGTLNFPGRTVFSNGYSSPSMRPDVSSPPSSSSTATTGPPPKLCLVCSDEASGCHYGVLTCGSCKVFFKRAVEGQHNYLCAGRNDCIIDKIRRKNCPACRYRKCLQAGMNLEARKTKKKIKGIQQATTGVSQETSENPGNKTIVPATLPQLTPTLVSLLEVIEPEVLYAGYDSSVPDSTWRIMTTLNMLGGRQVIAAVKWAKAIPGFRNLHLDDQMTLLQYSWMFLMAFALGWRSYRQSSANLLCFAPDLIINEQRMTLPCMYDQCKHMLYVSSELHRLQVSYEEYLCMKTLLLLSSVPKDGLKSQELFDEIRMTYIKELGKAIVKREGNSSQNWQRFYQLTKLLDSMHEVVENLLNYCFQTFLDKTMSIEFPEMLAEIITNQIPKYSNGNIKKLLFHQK
Test: Human Glucocorticoid Receptor (GR) Assay, fluorescence polarization
Format: binding
Settings: GS Red tracer, incubated 2 h at r.t., XLfit model 205, read-out: GRhuFL_FP_v2 Mean IC50
Outline: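 Fluorescence polarization kit assay: recombinant GR and GS Red fluorescent ligand with Stabilizing Peptide and DTT in potassium phosphate/sodium molybdate/EDTA screening buffer. Plates incubated 2 h in the dark at r.t.; DMSO served as 0% and dexamethasone as 100% control.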

| IC50 [nM] | Compound |
| --- | --- |
| 13 | COCC(=O)N[C@@H](C)[C@H](Oc1ccc2c(cnn2-c2ccc(F)cc2)c1)c1ccc(C)c(C)c1 [Example 257, N-[(1R,2S)-1-(3,4-dimethylphenyl)-1-[1-(4-fluorophenyl)indazol-5-yl]oxy-propan-2-yl]-2-methoxy-acetamide] |
| 4.4 | COCC(=O)N[C@@H](C)[C@H](Oc1ccc2c(cnn2-c2ccc(F)cc2)c1)c1ccc(F)c(F)c1 [Example 258, N-[(1R,2S)-1-(3,4-difluorophenyl)-1-[1-(4-fluorophenyl)indazol-5-yl]oxy-propan-2-yl]-2-methoxy-acetamide] |
| 5.3 | COCC(=O)N[C@@H](C)[C@H](Oc1ccc2c(cnn2-c2ccc(F)cc2)c1)c1ccc(C)c(F)c1 [Example 259, N-[(1R,2S)-1-(3-fluoro-4-methyl-phenyl)-1-[1-(4-fluorophenyl)indazol-5-yl]oxy-propan-2-yl]-2-methoxy-acetamide] |
| 14 | COCC(=O)N[C@@H](C)[C@H](Oc1ccc2c(cnn2-c2ccc(F)cc2)c1)c1cc(C)ccc1C [Example 260, N-[(1R,2S)-1-(2,5-dimethylphenyl)-1-[1-(4-fluorophenyl)indazol-5-yl]oxy-propan-2-yl]-2-methoxy-acetamide] |
| 5.7 | COCC(=O)N[C@@H](C)[C@H](Oc1ccc2c(cnn2-c2ccc(F)cc2)c1)c1ccc(C)cc1C [Example 261, N-[(1R,2S)-1-(2,4-dimethylphenyl)-1-[1-(4-fluorophenyl)indazol-5-yl]oxy-propan-2-yl]-2-methoxy-acetamide] |
| 4.5 | COCC(=O)N[C@@H](C)[C@H](Oc1ccc2c(cnn2-c2ccc(F)cc2)c1)c1ccc(OC)c(F)c1 [Example 262, N-[(1R,2S)-1-(3-fluoro-4-methoxy-phenyl)-1-[1-(4-fluorophenyl)indazol-5-yl]oxy-propan-2-yl]-2-methoxy-acetamide] |
| 4.2 | COCC(=O)N[C@@H](C)[C@H](Oc1ccc2c(cnn2-c2ccc(F)cc2)c1)c1cccc(F)c1 [Example 263, N-[(1R,2S)-1-(3-fluorophenyl)-1-[1-(4-fluorophenyl)indazol-5-yl]oxy-propan-2-yl]-2-methoxy-acetamide] |
| 6.5 | COc1ccc([C@@H](Oc2ccc3c(cnn3-c3ccc(F)cc3)c2)[C@H](C)NC(=O)C(F)(F)F)cc1F [Example 264, 2,2,2-trifluoro-N-[(1R,2S)-1-(3-fluoro-4-methoxy-phenyl)-1-[1-(4-fluorophenyl)indazol-5-yl]oxy-propan-2-yl]acetamide] |
| 25 | COc1ccc([C@@H](Oc2ccc3c(cnn3-c3ccc(F)cc3)c2)[C@H](C)NC(=O)C2(C)CC2)c(C)c1 [Example 265, N-[(1R,2S)-1-[1-(4-fluorophenyl)indazol-5-yl]oxy-1-(4-methoxy-2-methyl-phenyl)propan-2-yl]-1-methyl-cyclopropane-1-carboxamide] |
| 2.9 | Cc1ccc(C)c([C@@H](Oc2ccc3c(cnn3-c3ccc(F)cc3)c2)[C@H](C)NC(=O)C(C)(F)F)c1 [Example 266, N-[(1R,2S)-1-(2,5-dimethylphenyl)-1-[1-(4-fluorophenyl)indazol-5-yl]oxy-propan-2-yl]-2,2-difluoro-propanamide] |
| 12 | COc1cccc([C@@H](Oc2ccc3c(cnn3-c3ccc(F)cc3)c2)[C@H](C)NC(=O)CNC(C)=O)c1 [Example 269, N-[[(1R,2S)-1-[1-(4-fluorophenyl)indazol-5-yl]oxy-1-(3-methoxyphenyl)propan-2-yl]carbamoylmethyl]acetamide] |
| 8.1 | COc1cccc([C@@H](Oc2ccc3c(cnn3-c3ccc(F)cc3)c2)[C@H](C)NC(=O)CNC(N)=O)c1 [Example 270, 2-(carbamoylamino)-N-[(1R,2S)-1-[1-(4-fluorophenyl)indazol-5-yl]oxy-1-(3-methoxyphenyl)propan-2-yl]acetamide] |
| 21 | COc1cccc([C@@H](Oc2ccc3c(cnn3-c3ccc(F)cc3)c2)[C@H](C)N2C(=O)CNC2=O)c1 [Example 271, 3-[(1R,2S)-1-[1-(4-fluorophenyl)indazol-5-yl]oxy-1-(3-methoxyphenyl)propan-2-yl]imidazolidine-2,4-dione] |
| 4.3 | COc1cccc([C@@H](Oc2ccc3c(cnn3-c3ccc(F)cc3)c2)[C@H](C)NC(=O)c2ccc(Br)s2)c1 [Example 272, 5-bromo-N-[(1R,2S)-1-[1-(4-fluorophenyl)indazol-5-yl]oxy-1-(3-methoxyphenyl)propan-2-yl]thiophene-2-carboxamide] |
| 7.9 | COc1cccc([C@@H](Oc2ccc3c(cnn3-c3ccc(F)cc3)c2)[C@H](C)NC(=O)c2ccc(S(C)(=O)=O)s2)c1 [Example 273, N-[(1R,2S)-1-[1-(4-fluorophenyl)indazol-5-yl]oxy-1-(3-methoxyphenyl)propan-2-yl]-5-methylsulfonyl-thiophene-2-carboxamide] |
| 3.9 | COc1cccc([C@@H](Oc2ccc3c(cnn3-c3ccc(F)cc3)c2)[C@H](C)NC(=O)c2ncc(C)s2)c1 [Example 274, N-[(1R,2S)-1-[1-(4-fluorophenyl)indazol-5-yl]oxy-1-(3-methoxyphenyl)propan-2-yl]-5-methyl-1,3-thiazole-2-carboxamide] |
| 4 | COc1cccc([C@@H](Oc2ccc3c(cnn3-c3ccc(F)cc3)c2)[C@H](C)NC(=O)c2cc(C#N)cs2)c1 [Example 275, 4-cyano-N-[(1R,2S)-1-[1-(4-fluorophenyl)indazol-5-yl]oxy-1-(3-methoxyphenyl)propan-2-yl]thiophene-2-carboxamide] |
| 12 | COc1cccc([C@@H](Oc2ccc3c(cnn3-c3ccc(F)cc3)c2)[C@H](C)NC(=O)c2ccc(Br)o2)c1 [Example 276, 5-bromo-N-[(1R,2S)-1-[1-(4-fluorophenyl)indazol-5-yl]oxy-1-(3-methoxyphenyl)propan-2-yl]furan-2-carboxamide] |
| 4.7 | COc1cccc([C@@H](Oc2ccc3c(cnn3-c3ccc(F)cc3)c2)[C@H](C)NC(=O)c2nnc(C)o2)c1 [Example 277, N-[(1R,2S)-1-[1-(4-fluorophenyl)indazol-5-yl]oxy-1-(3-methoxyphenyl)propan-2-yl]-5-methyl-1,3,4-oxadiazole-2-carboxamide] |
| 3.8 | COc1cccc([C@@H](Oc2ccc3c(cnn3-c3ccc(F)cc3)c2)[C@H](C)NC(=O)c2cc[nH]n2)c1 [Example 279, N-[(1R,2S)-1-[1-(4-fluorophenyl)indazol-5-yl]oxy-1-(3-methoxyphenyl)propan-2-yl]-1H-pyrazole-3-carboxamide] |
| 3.6 | COc1cccc([C@@H](Oc2ccc3c(cnn3-c3ccc(F)cc3)c2)[C@H](C)NC(=O)c2ccon2)c1 [Example 280, N-[(1R,2S)-1-[1-(4-fluorophenyl)indazol-5-yl]oxy-1-(3-methoxyphenyl)propan-2-yl]1,2-oxazole-3-carboxamide] |
| 3.8 | COc1cccc([C@@H](Oc2ccc3c(cnn3-c3ccc(F)cc3)c2)[C@H](C)NC(=O)c2nc[nH]n2)c1 [Example 281, N-[(1R,2S)-1-[1-(4-fluorophenyl)indazol-5-yl]oxy-1-(3-methoxyphenyl)propan-2-yl]-1H-1,2,4-triazole-3-carboxamide] |
| 2.4 | COc1cccc([C@@H](Oc2ccc3c(cnn3-c3ccc(F)cc3)c2)[C@H](C)NC(=O)c2cc(C)[nH]n2)c1 [Example 282, N-[(1R,2S)-1-[1-(4-fluorophenyl)indazol-5-yl]oxy-1-(3-methoxyphenyl)propan-2-yl]-5-methyl-1H-pyrazole-3-carboxamide] |
| 4.7 | COc1cccc([C@@H](Oc2ccc3c(cnn3-c3ccc(F)cc3)c2)[C@H](C)NC(=O)c2cn(C)cn2)c1 [Example 283, N-[(1R,2S)-1-[1-(4-fluorophenyl)indazol-5-yl]oxy-1-(3-methoxyphenyl)propan-2-yl]-1-methyl-imidazole-4-carboxamide] |
| 22 | COc1cccc([C@@H](Oc2ccc3c(cnn3-c3ccc(F)cc3)c2)[C@H](C)NC(=O)c2cnoc2C)c1 [Example 284, N-[(1R,2S)-1-[1-(4-fluorophenyl)indazol-5-yl]oxy-1-(3-methoxyphenyl)propan-2-yl]-5-methyl-1,2-oxazole-4-carboxamide] |
| 4.7 | COc1cccc([C@@H](Oc2ccc3c(cnn3-c3ccc(F)cc3)c2)[C@H](C)NC(=O)c2cc(C)c(C)o2)c1 [Example 286, N-[(1R,2S)-1-[1-(4-fluorophenyl)indazol-5-yl]oxy-1-(3-methoxlphenyl)propan-2-yl]-4,5-dimethyl-furan-2-carboxamide] |
| 4.3 | COc1cccc([C@@H](Oc2ccc3c(cnn3-c3ccc(F)cc3)c2)[C@H](C)NC(=O)c2cc(C)n(C)n2)c1 [Example 287, N-[(1R,2S)-1-[1-(4-fluorophenyl)indazol-5-yl]oxy-1-(3-methoxyphenyl)propan-2-yl]-1,5-dimethyl-pyrazole-3-carboxamide] |
